In experiment [1] the test system is antibodies in sera from SARS patients (sera 1a, 1b, 2, 6, 37, 62, London, SARS-yellow, SARS-green). It is filed as binding, human. Set-up: Binding of serum 6 to linear peptides of protein X1 of SARS-CoV Urbani / Binding of serum 37 to linear peptides of protein X1 of SARS-CoV Urbani / Binding of serum 6 to looped/cyclic peptide (PEPSCAN-ELISA) / Binding of serum 37 to looped/cyclic peptide (PEPSCAN-ELISA) / Binding of serum 37 to looped/cyclic peptides of protein X1 of SARS-CoV Urbani / Binding of serum 6 to linear peptides of protein X2 / Binding of serum 37 to linear peptides of protein X2 / Binding of serum 37 to looped/cyclic peptides of protein X2 of SARS-CoV Urbani / Binding of serum 6 to linear peptides of protein M of SARS-CoV Urbani / Binding of serum 37 to linear peptides of protein M of SARS-CoV Urbani / Binding of serum 6 to looped/cyclic peptides of protein M of SARS-CoV Urbani / Binding of serum 37 to looped/cyclic peptides of protein M of SARS-CoV Urbani / Binding of serum 6 to linear peptides of protein X3 of SARS-CoV Urbani / Binding of serum 37 to linear peptides of protein X3 of SARS-CoV Urbani / Binding of serum 37 to looped/cyclic peptides of protein X3 of SARS-CoV Urbani / Binding of serum 6 to linear peptides of protein X4 of SARS-CoV Urbani / Binding of serum 37 to linear peptides of protein X4 of SARS-CoV Urbani / Binding of serum 37 to looped/cyclic peptides of protein X4 of SARS-CoV Urbani / Binding of serum 6 to linear peptides of protein X5 of SARS-CoV Urbani / Binding of serum 37 to linear peptides of protein X5 of SARS-CoV Urbani / Binding of serum 37 to looped/cyclic peptides of protein X5 of SARS-CoV Urbani / Binding of serum 6 to linear peptides of protein N of SARS-CoV Urbani / Binding of serum 37 to linear peptides of protein N of SARS-CoV Urbani / Binding of serum 6 to linear peptide (PEPSCAN-ELISA) / Binding of serum 1a to looped/cyclic peptides of protein N of SARS-CoV Urbani / Binding of serum 1b to looped/cyclic peptides of protein N of SARS-CoV Urbani / Binding of serum 2 to looped/cyclic peptides of protein N of SARS-CoV Urbani / Binding of serum 6 to looped/cyclic peptides of protein N of SARS-CoV Urbani / Binding of serum 37 to looped/cyclic peptides of protein N of SARS-CoV Urbani / Binding of serum 62 to looped/cyclic peptides of protein N of SARS-CoV Urbani / Binding of serum London to looped/cyclic peptides of protein N of SARS-CoV Urbani / Binding of serum SARS-green to looped/cyclic peptides of protein N of SARS-CoV Urbani: unit not given here.

For experiment [2], the system named is control sera (pooled serum of ten healthy LUMC hospital workers; commercial negative donor pooled serum from the Dutch bloodbank). It is filed as binding, human. Set-up: Binding of Control serum LUMC to linear peptides / Binding of Control serum Blood-bank to linear peptides / Binding of Control serum LUMC to looped peptides / Binding of Control Serum Blood-Bank to Looped peptides / Binding of Control serum LUMC to linear peptides of the protein M of SARS-CoV Urbani / Binding of Control serum Blood-bank to linear peptides of the protein M of SARS-CoV Urbani / Binding of Control serum LUMC to looped peptides of the protein M of SARS-CoV Urbani / Binding of Control Serum Blood-Bank to Looped peptides of the protein M of SARS-CoV Urbani: unit not given here.

In experiment [3] the test system is rabbit serum obtained by immunizing a rabbit with the SARS-CoV strain Frankfurt 1. It is filed as binding. On the set-up: Binding of a rabbit serum to linear peptides / Binding of a rabbit serum to looped peptides / Rabbit serum linear peptides / Rabbit serum looped peptides / Binding of a rabbit serum to linear peptides of protein N of SARS-CoV Urbani (Rabbit serum linear peptides) / Binding of a rabbit serum to looped/cyclic peptides of protein N of SARS-CoV Urbani (Rabbit serum looped peptides): unit not given here.

On to FHRWHTMVQTCTPNV, for which, in experiment [1], the “Binding of serum 1a to linear peptides of protein X5 of SARS-CoV Urbani” value is listed as 0.8, the “Binding of serum 1a to looped/cyclic peptides of protein X5 of SARS-CoV Urbani” value was 0.7, the “Binding of serum 1b to linear peptides of protein X5 of SARS-CoV Urbani” value is listed as 0.7 and the “Binding of serum 1b to looped/cyclic peptides of protein X5 of SARS-CoV Urbani” value is 0.6. Besides, in experiment [1], the “Binding of serum 2 to linear peptides of protein X5 of SARS-CoV Urbani” value came to 0.9, the “Binding of serum 2 to looped/cyclic peptides of protein X5 of SARS-CoV Urbani” value is 0.6, the “Binding of serum 6 to linear peptides of protein X5 of SARS-CoV Urbani” value worked out at 0.5 and the “Binding of serum 6 to looped/cyclic peptides of protein X5 of SARS-CoV Urbani” value is on record as 0.3. In experiment [1], the “Binding of serum 37 to linear peptides of protein X5 of SARS-CoV Urbani” value stood at 0.7, the “Binding of serum 37 to looped/cyclic peptides of protein X5 of SARS-CoV Urbani” value is recorded as 0.5, the “Binding of serum 62 to linear peptides of protein X5 of SARS-CoV Urbani” value worked out at 0.7 and the “Binding of serum 62 to looped/cyclic peptides of protein X5 of SARS-CoV Urbani” value was found to be 0.4. Moreover, in experiment [1], the “Binding of serum London to linear peptides of protein X5 of SARS-CoV Urbani” value was found to be 0.7, the “Binding of serum London to looped/cyclic peptides of protein X5 of SARS-CoV Urbani” value is 0.2, the “Binding of serum SARS-green to linear peptides of protein X5 of SARS-CoV Urbani” value was 0.5 and the “Binding of serum SARS-green to looped/cyclic peptides of protein X5 of SARS-CoV Urbani” value came to 0.5. Besides, in experiment [1], the “Binding of serum SARS-yellow to linear peptides of protein X5 of SARS-CoV Urbani” value stood at 0.4 and the “Binding of serum SARS-yellow to looped/cyclic peptides of protein X5 of SARS-CoV Urbani” value was 0.4. Also, in experiment [2], the “Binding of Control Serum Blood-Bank to Looped peptides” value is on record as 0.4, the “Binding of Control serum Blood-bank to linear peptides” value was 0.7, the “Binding of Control serum LUMC to linear peptides” value was 0.5 and the “Binding of Control serum LUMC to looped peptides” value stood at 0.5. Moreover, in experiment [3], the “Rabbit serum linear peptides” value was 0.8 and the “Rabbit serum looped peptides” value came out at 0.4.

Take FIRQEEVQQELYSPL: in experiment [1], the “Binding of serum 1a to linear peptides of protein X4 of SARS-CoV Urbani” value stood at 0.8, the “Binding of serum 1b to linear peptides of protein X4 of SARS-CoV Urbani” value amounted to 0.6, the “Binding of serum 2 to linear peptides of protein X4 of SARS-CoV Urbani” value is recorded as 0.5 and the “Binding of serum 6 to linear peptides of protein X4 of SARS-CoV Urbani” value is reported as 0.5. Further, in experiment [1], the “Binding of serum 37 to linear peptides of protein X4 of SARS-CoV Urbani” value worked out at 0.8, the “Binding of serum 62 to linear peptides of protein X4 of SARS-CoV Urbani” value was determined as 0.7, the “Binding of serum London to linear peptides of protein X4 of SARS-CoV Urbani” value is 0.7 and the “Binding of serum SARS-green to linear peptides of protein X4 of SARS-CoV Urbani” value was determined as 0.5. Further, in experiment [1], the “Binding of serum SARS-yellow to linear peptides of protein X4 of SARS-CoV Urbani” value was determined as 0.7; the “Recognition of the peptide by sera of SARS-CoV infected individuals, and form (linear, looped/cyclic) in which it is recognized” value is recorded as “recognized in looped/cyclic form”. In experiment [2], the “Binding of Control Serum Blood-Bank to Looped peptides” value was determined as 0.9, the “Binding of Control serum Blood-bank to linear peptides” value was found to be 0.7, the “Binding of Control serum LUMC to linear peptides” value is reported as 0.7 and the “Binding of Control serum LUMC to looped peptides” value came out at 0.9. Also, in experiment [3], the “Rabbit serum linear peptides” value is 0.5 and the “Rabbit serum looped peptides” value was 0.5.

On to FLAVFQSATKIIALN, for which, in experiment [1], the “Binding of serum 1a to linear peptides of protein X1 of SARS-CoV Urbani” value is reported as 0.6, the “Binding of serum 1a to looped/cyclic peptide (PEPSCAN-ELISA)” value is listed as 0.6, the “Binding of serum 1b to linear peptides of protein X1 of SARS-CoV Urbani” value came to 0.4 and the “Binding of serum 1b to looped/cyclic peptide (PEPSCAN-ELISA)” value turned out to be 0.4. For the same sequence, in experiment [1], the “Binding of serum 2 to linear peptides of protein X1 of SARS-CoV Urbani” value was found to be 0.5, the “Binding of serum 2 to looped/cyclic peptide (PEPSCAN-ELISA)” value is on record as 0.5, the “Binding of serum 6 to linear peptides of protein X1 of SARS-CoV Urbani” value was determined as 0.4 and the “Binding of serum 6 to looped/cyclic peptide (PEPSCAN-ELISA)” value worked out at 1.0. Moreover, in experiment [1], the “Binding of serum 37 to linear peptides of protein X1 of SARS-CoV Urbani” value came to 0.6, the “Binding of serum 37 to looped/cyclic peptide (PEPSCAN-ELISA)” value is given as 0.5, the “Binding of serum 62 to linear peptides of protein X1 of SARS-CoV Urbani” value turned out to be 0.6 and the “Binding of serum 62 to looped/cyclic peptide (PEPSCAN-ELISA)” value is 0.6. For the same sequence, in experiment [1], the “Binding of serum London to linear peptides of protein X1 of SARS-CoV Urbani” value is on record as 0.2, the “Binding of serum London to looped/cyclic peptide (PEPSCAN-ELISA)” value is 1.4, the “Binding of serum SARS-green to linear peptides of protein X1 of SARS-CoV Urbani” value was 0.3 and the “Binding of serum SARS-green to looped/cyclic peptide (PEPSCAN-ELISA)” value turned out to be 0.3. Besides, in experiment [1], the “Binding of serum SARS-yellow to linear peptides of protein X1 of SARS-CoV Urbani” value amounted to 0.4 and the “Binding of serum SARS-yellow to looped/cyclic peptide (PEPSCAN-ELISA)” value is given as 0.4. Also, in experiment [2], the “Binding of Control Serum Blood-Bank to Looped peptides” value is listed as 0.6, the “Binding of Control serum Blood-bank to linear peptides” value is on record as 0.6, the “Binding of Control serum LUMC to linear peptides” value is on record as 0.6 and the “Binding of Control serum LUMC to looped peptides” value came to 0.7. In experiment [3], the “Binding of a rabbit serum to linear peptides” value was found to be 0.6 and the “Binding of a rabbit serum to looped peptides” value is 0.6.

Turning to FLAWIMLLQFAYSNR, in experiment [1], the “Binding of serum 1a to linear peptides of protein M of SARS-CoV Urbani” value amounted to 0.7, the “Binding of serum 1a to looped/cyclic peptides of protein M of SARS-CoV Urbani” value turned out to be 0.8, the “Binding of serum 1b to linear peptides of protein M of SARS-CoV Urbani” value was 0.6 and the “Binding of serum 1b to looped/cyclic peptides of protein M of SARS-CoV Urbani” value came out at 0.8. Moreover, in experiment [1], the “Binding of serum 2 to linear peptides of protein M of SARS-CoV Urbani” value was 0.5, the “Binding of serum 2 to looped/cyclic peptides of protein M of SARS-CoV Urbani” value is on record as 0.6, the “Binding of serum 6 to linear peptides of protein M of SARS-CoV Urbani” value is 0.4 and the “Binding of serum 6 to looped/cyclic peptides of protein M of SARS-CoV Urbani” value is given as 0.9. For the same sequence, in experiment [1], the “Binding of serum 37 to linear peptides of protein M of SARS-CoV Urbani” value is given as 0.4, the “Binding of serum 37 to looped/cyclic peptides of protein M of SARS-CoV Urbani” value stood at 0.7, the “Binding of serum 62 to linear peptides of protein M of SARS-CoV Urbani” value came to 0.4 and the “Binding of serum 62 to looped/cyclic peptides of protein M of SARS-CoV Urbani” value was 0.6. Also, in experiment [1], the “Binding of serum London to linear peptides of protein M of SARS-CoV Urbani” value is reported as 0.4, the “Binding of serum London to looped/cyclic peptides of protein M of SARS-CoV Urbani” value is 0.7, the “Binding of serum SARS-green to linear peptides of protein M of SARS-CoV Urbani” value worked out at 0.5 and the “Binding of serum SARS-green to looped/cyclic peptides of protein M of SARS-CoV Urbani” value is reported as 0.5. In experiment [1], the “Binding of serum SARS-yellow to linear peptides of protein M of SARS-CoV Urbani” value turned out to be 0.2 and the “Binding of serum SARS-yellow to looped/cyclic peptides of protein M of SARS-CoV Urbani” value came to 0.7. Further, in experiment [2], the “Binding of Control Serum Blood-Bank to Looped peptides of the protein M of SARS-CoV Urbani” value stood at 0.8, the “Binding of Control serum Blood-bank to linear peptides of the protein M of SARS-CoV Urbani” value came to 0.5, the “Binding of Control serum LUMC to linear peptides of the protein M of SARS-CoV Urbani” value amounted to 0.5 and the “Binding of Control serum LUMC to looped peptides of the protein M of SARS-CoV Urbani” value is listed as 0.7. In experiment [3], the “Rabbit serum linear peptides” value amounted to 0.3 and the “Rabbit serum looped peptides” value is listed as 0.5.
